Where no end group is shown, it is not given here.
What was measured:
[1] = system: Staphylococcus aureus NCTC 12981; test: microbe, parasite or virus in culture; assay type: cell-based; settings: for MIC: Staphylococcus aureus, NCTC12981, compound alone, broth microdilution, Iso-Sensitest Broth, range 128–0 μg/mL, 5 × 10^5 CFU/mL, visual read-out, duplicate, read-out: MIC, S. aureus NCTC 12981
Procedure: (§1) The Minimum Inhibitory Concentrations (MIC) of compounds 1–27 were evaluated through a broth microdilution assay against susceptible strains of Escherichia coli (Gram–negative) and Staphylococcus aureus (Gram-positive).
(§2) The antibacterial activity of the peptides and peptide/antibiotic combinations were tested by the broth microdilution assay according to [24]. Escherichia coli NCTC 10,418 and Staphylococcus aureus NCTC 12,981 were obtained from the National Collection of Type Cultures, UK. Escherichia coli G69 was a clinical isolate as previously described.
(§3) Briefly, all bacterial strains were cultured on nutrient agar (Sigma-Aldrich, Gillingham, UK) plates and incubated for 24 h at 37 °C prior to MIC determination. In addition, known quantities of each test sample were dissolved in DMSO and then diluted in ISB (Iso- Sensitest Broth, Oxoid, Basingstoke, UK) to give a range concentration of 128–0 μg/mL, unless stated differently. […] Finally, the overnight cultures of each of the tested strains were suspended to an inoculum density of approximately 1.0 × 10^8 CFU/mL in phosphate buffered saline (PBS), consisting of 137 mM NaCl, 3 mM KCl, 8 mM Na2HPO4, and […] (Oxoid, Basingstoke, UK). The cell suspensions were standardized by adjusting the optical density to 0.1 at 600 nm (Thermo Scientific UV-Vis Spectrophotometer, Abingdon, UK) before being diluted 1:100 in ISB prior to inoculation
(§4) The assays were performed by microdilution using 96-well microtiter plates with a final inoculum of 5 × 10^5 CFU/mL and each sample was tested in duplicate in at least two independent experiments in order to confirm the reliability of the data. Results were determined by visual inspection of the wells and the presence of an evident opaque medium or white pellets were indicative of bacterial growth. The MIC values were recorded as the lowest concentration at which no bacterial growth was detected.
(§5) Table S4. Minimum inhibitory concentration (MIC) of synthesised peptides and of reference antibiotics
(§6) novobiocin and norfloxacin.

[2] = system: Escherichia coli NCTC 10418; test: microbe, parasite or virus in culture; assay type: cell-based; settings: for MIC: Escherichia coli, NCTC10418, compound alone, broth microdilution, Iso-Sensitest Broth, range 128–0 μg/mL, 5 × 10^5 CFU/mL, visual read-out, duplicate, read-out: MIC, E. coli NCTC 10418
Procedure: as §1, §2, §3, §4, §5, §6

[3] = system: susceptible E. coli 10418; test: Norfloxacin potentiation assay (MIC of norfloxacin with fixed concentration of peptide or PAβN); assay type: cell-based, Escherichia coli; settings: broth microdilution, duplicate; for MIC of norfloxacin, E. coli 10418, +128 μg/mL of peptide: fixed 128 μg/mL peptide
Procedure: (§7) In order to gather more evidence on the potential mechanisms of action, the effects of the peptides in combination with the quinolone antibiotic norfloxacin were determined. Norfloxacin is active against Gram-negative bacteria, generally achieving entry via porin channels, but is also able to enter the bacterial cell via the membrane in porin-deficient mutants. Therefore, any membrane permeability mechanism would not be expected to have a significant effect on improving the activity of norfloxacin in porin-competent strains. This is indeed what was observed (Table S5), which added weight to our hypothesis that our very short peptides may be acting as membrane permeability enhancers for novobiocin.
as §2
as §3, with “inoculation […]” for “inoculation”
as §4, with “detected. […]” for “detected.”
(§8) potentiating novobiocin. Assays were performed at fixed concentration of 128 μg/mL against susceptible E. coli 10418 and multidrug resistant clinical isolate E. coli G69. Potentiation assay for norfloxacin was also performed in presence of 64 μg/mL of RND efflux pump inhibitor PAβN. All tests were repeated in […]
(§9) Compound Sequence MIC of norfloxacin (μg/mL) […]
(§10) inhibitor PaβN but no potentiation was observed, so the assay was not repeated at lower concentrations.

[4] = system: multidrug resistant clinical isolate E. coli G69; test: as above; assay type: cell-based, Escherichia coli; settings: broth microdilution, duplicate; for MIC of norfloxacin, E. coli G69, +128 μg/mL of peptide: fixed 128 μg/mL peptide
Procedure: as §7, §2
as §3, with “inoculation […]” for “inoculation”
as §4, with “detected. […]” for “detected.”
as §8, §9, §10

[5] = system: multi-drug resistant clinical isolate E. coli G69; test: Novobiocin potentiation assay (MIC of novobiocin with fixed concentration of peptide or PAβN); assay type: cell-based, Escherichia coli; set-up: key to MIC of Novobiocin, E. coli G69, +32 μg/mL added peptide / MIC of Novobiocin, E. coli G69, +128 μg/mL added peptide: Non potentiating (NP) indicated no reduction in the MIC of novobiocin was observed; settings: for MIC of Novobiocin, E. coli G69, +128 μg/mL added peptide / MIC of Novobiocin, E. coli G69, +32 μg/mL added peptide: Iso-Sensitest Broth, 5 × 10^5 CFU/mL, visual read-out; for MIC of Novobiocin, E. coli G69, +128 μg/mL added peptide: fixed 128 μg/mL peptide; for MIC of Novobiocin, E. coli G69, +32 μg/mL added peptide: fixed 32 μg/mL peptide
Procedure: (§11) The peptides were also tested in combination with antibiotics novobiocin and norfloxacin. Novobiocin has low efficacy against Gram-negative bacteria due to its hydrophobicity, giving limited cell permeability.
as §2, §3, §4

[6] = system: susceptible E. coli NCTC 10418; test: as above; assay type: cell-based, Escherichia coli; set-up: key to MIC of Novobiocin, E. coli NCTC 10418, +128 μg/mL added peptide / MIC of Novobiocin, E. coli NCTC 10418, +32 μg/mL added peptide: Non potentiating (NP) indicated no reduction in the MIC of novobiocin was observed; settings: for MIC of Novobiocin, E. coli NCTC 10418, +128 μg/mL added peptide / MIC of Novobiocin, E. coli NCTC 10418, +32 μg/mL added peptide: Iso-Sensitest Broth, 5 × 10^5 CFU/mL, visual read-out; for MIC of Novobiocin, E. coli NCTC 10418, +128 μg/mL added peptide: fixed 128 μg/mL peptide; for MIC of Novobiocin, E. coli NCTC 10418, +32 μg/mL added peptide: fixed 32 μg/mL peptide
Procedure: as §11, §2, §3, §4

| Compound | MIC of Novobiocin, E. coli G69, +128 μg/mL added peptide ([5]; broth microdilution, duplicate) | MIC of Novobiocin, E. coli NCTC 10418, +128 μg/mL added peptide ([6]; broth microdilution, duplicate) | MIC of norfloxacin, E. coli 10418, +128 μg/mL of peptide [3] [µg/mL] | MIC of norfloxacin, E. coli G69, +128 μg/mL of peptide [4] [µg/mL] | MIC of Novobiocin, E. coli NCTC 10418, +32 μg/mL added peptide ([6]; broth microdilution, duplicate) [µg/mL] | further results |
| --- | --- | --- | --- | --- | --- | --- |
| CCn1cc(C(=O)O)c(=O)c2cc(F)c(N3CCNCC3)cc21 [Norfloxacin, reference compound] | – | – | – | – | – | MIC [1]: 2 µg/mL; MIC [2]: 0.062 µg/mL; MIC ([3]; Escherichia coli, E.COLI10418, norfloxacin alone): 0.062 µg/mL; MIC ([4]; Escherichia coli, norfloxacin alone): > 128 µg/mL |
| CO[C@@H]1[C@@H](OC(N)=O)[C@@H](O)[C@H](Oc2ccc3c(O)c(NC(=O)c4ccc(O)c(CC=C(C)C)c4)c(=O)oc3c2C)OC1(C)C [Novobiocin] | – | – | – | – | – | MIC ([5]; Escherichia coli, novobiocin alone, no peptide, broth microdilution, duplicate): > 128 µg/mL; MIC [1]: 4 µg/mL; MIC [2]: 32 µg/mL; MIC ([6]; Escherichia coli, NCTC10418, novobiocin alone, no peptide, broth microdilution, duplicate): 32 µg/mL |
| WKPLPPR [Compound 24, proline-rich cationic peptide WKPLPPR, amidated at the C-terminus] | NP | NP | 0.062 | > 128 | – | potentiation of the MIC of novobiocin, result in words ([6]; added peptide, wording covers susceptible and multi-drug resistant strain): no synergism was observed |
| WKWKW [Compound 15, short cationic peptide WKWKW, amidated at the C-terminus] | 8 µg/mL | 4 µg/mL | 0.125 | > 128 | 8 | potentiation of novobiocin against multi-drug resistant E. coli, result in words ([5]; E. coli G69, added peptide): restore the susceptibility; MIC of Novobiocin, E. coli G69, +32 μg/mL added peptide ([5]; broth microdilution, duplicate): 128 µg/mL |
| WRRQRW [Compound 20, short cationic peptide WRRQRW, C-terminal amide; commercial sample from ThermoFisher] | 32 µg/mL | 4 µg/mL | 0.062 | > 128 | 16 | MIC of Novobiocin, E. coli G69, +32 μg/mL added peptide ([5]; broth microdilution, duplicate): NP |
| WRWR [Compound 4, short cationic peptide WRWR, amidated at the C-terminus] | NP | 2 µg/mL | 0.062 | > 128 | 32 | – |
| WRWRW-NH2 [Compound 6] | – | – | – | – | – | MIC, S. aureus NCTC 12981 ([1]; NCTC 12981, 24 h): 64 µg/mL; MIC, E. coli NCTC 10418 ([2]; NCTC 10418, 24 h): 64 µg/mL |
